In paper PMC6438784 (Saudi Pharmaceutical Journal : SPJ, 2019):
Where two headings read alike, the source gives them in different places.

Experiments:
[1] = system: UGT1A6; details: UGT1A6 inhibition; ref Sridar et al., 2004; cited from earlier work
[2] = target: T1, CYP2C8 (Homo sapiens, UniProt P10632); experiment: CYP2C8 inhibition in pooled HLM, amodiaquine to desethylamodiaquine; type: in vitro ADME; details: for IC50: amodiaquine
T1 sequence (P10632 1-490): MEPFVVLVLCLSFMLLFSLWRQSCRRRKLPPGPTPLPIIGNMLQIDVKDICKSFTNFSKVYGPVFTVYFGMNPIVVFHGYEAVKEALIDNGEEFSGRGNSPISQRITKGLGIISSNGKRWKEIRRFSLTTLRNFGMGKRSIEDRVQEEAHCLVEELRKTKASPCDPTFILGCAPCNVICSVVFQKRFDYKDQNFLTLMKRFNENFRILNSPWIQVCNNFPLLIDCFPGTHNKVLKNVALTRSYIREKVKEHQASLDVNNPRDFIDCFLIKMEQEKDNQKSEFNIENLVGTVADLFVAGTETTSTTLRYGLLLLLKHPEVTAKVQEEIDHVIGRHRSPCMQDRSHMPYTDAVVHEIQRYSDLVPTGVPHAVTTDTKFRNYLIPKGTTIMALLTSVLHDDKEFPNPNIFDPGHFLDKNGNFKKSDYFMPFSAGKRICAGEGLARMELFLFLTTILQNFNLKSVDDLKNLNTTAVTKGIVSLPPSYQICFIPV

[3] = target: T1, CYP2C8; experiment: CYP2C8 inhibition in pooled HLM, pioglitazone to hydroxypioglitazone; type: in vitro ADME
[4] = target: T2, UGT1A1 (Homo sapiens, UniProt P22309); experiment: UGT1A1 inhibition in HLM, β-estradiol glucuronidation; type: in vitro ADME
T2 sequence (P22309 26-533): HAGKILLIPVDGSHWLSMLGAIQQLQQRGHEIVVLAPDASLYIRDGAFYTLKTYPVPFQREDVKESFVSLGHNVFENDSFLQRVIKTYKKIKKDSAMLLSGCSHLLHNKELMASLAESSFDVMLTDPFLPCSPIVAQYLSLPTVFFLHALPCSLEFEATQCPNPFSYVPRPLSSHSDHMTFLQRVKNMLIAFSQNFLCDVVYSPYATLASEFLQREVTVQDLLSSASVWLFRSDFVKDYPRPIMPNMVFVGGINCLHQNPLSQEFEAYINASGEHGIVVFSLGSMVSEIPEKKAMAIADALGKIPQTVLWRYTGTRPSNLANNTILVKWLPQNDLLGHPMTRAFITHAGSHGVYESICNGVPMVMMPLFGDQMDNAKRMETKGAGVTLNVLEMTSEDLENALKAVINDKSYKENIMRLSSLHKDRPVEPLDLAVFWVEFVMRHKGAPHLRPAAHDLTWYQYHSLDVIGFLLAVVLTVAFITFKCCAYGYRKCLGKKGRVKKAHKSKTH

[5] = target: T3, UGT1A6 (Homo sapiens, UniProt P19224); experiment: UGT1A6 inhibition in HLM, serotonin glucuronidation; type: in vitro ADME; details: for IC50: HLM
T3 sequence (P19224 27-532): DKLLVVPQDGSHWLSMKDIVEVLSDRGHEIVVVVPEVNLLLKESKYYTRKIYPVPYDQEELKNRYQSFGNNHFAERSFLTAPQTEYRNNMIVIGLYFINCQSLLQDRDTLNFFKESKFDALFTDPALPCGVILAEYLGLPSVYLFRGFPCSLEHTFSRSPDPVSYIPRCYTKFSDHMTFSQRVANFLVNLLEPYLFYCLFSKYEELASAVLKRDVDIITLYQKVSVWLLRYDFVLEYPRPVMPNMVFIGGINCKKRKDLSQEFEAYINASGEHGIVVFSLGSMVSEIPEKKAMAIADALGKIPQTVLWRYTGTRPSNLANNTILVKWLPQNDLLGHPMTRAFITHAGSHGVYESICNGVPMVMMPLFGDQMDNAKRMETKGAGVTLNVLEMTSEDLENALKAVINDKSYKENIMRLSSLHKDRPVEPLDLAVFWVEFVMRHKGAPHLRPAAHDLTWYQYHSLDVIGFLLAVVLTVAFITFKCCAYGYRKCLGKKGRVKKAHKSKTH

[6] = target: T4, UGT1A9 (Homo sapiens, UniProt O60656); experiment: UGT1A9 inhibition in HLM, mycophenolic acid glucuronidation; type: in vitro ADME
T4 sequence (O60656 26-530): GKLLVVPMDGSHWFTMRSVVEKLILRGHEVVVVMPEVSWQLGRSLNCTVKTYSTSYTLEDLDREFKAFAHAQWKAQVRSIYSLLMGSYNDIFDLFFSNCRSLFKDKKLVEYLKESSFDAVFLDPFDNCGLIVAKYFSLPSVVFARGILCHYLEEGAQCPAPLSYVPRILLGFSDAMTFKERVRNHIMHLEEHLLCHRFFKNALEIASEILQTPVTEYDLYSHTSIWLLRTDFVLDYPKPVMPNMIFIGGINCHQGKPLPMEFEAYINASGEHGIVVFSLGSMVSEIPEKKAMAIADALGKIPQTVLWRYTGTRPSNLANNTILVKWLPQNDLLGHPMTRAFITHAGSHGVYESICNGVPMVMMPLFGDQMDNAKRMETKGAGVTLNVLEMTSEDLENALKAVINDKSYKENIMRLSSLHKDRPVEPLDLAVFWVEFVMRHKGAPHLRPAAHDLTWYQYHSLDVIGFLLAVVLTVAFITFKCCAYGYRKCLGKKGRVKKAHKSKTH

[7] = system: UGT1A8/10; experiment: UGT1A8/10 inhibition in HIM, mycophenolic acid glucuronidation; type: in vitro ADME, human
[8] = rats, ref Yeo et al., 2013, cited from earlier work
[9] = ref Riche et al., 2013, cited from earlier work
[10] = rats; ref Kapetanovic et al., 2011; cited from earlier work
[11] = initial screening, RDI 250 mg / rough IC50

COc1cc(C2Oc3cc([C@H]4Oc5cc(O)cc(O)c5C(=O)[C@@H]4O)ccc3OC2CO)ccc1O (some centres unmarked) [Silybin]
IC50 [1]: 28 µM

COc1cc(/C=C/c2ccc(O)cc2)cc(OC)c1 [pterostilbene]
IC50 ([2]; Precise IC50, confirmatory experiment, HLM, mean ± SE): 3.12 µM
IC50 ([2]; Rough IC50, initial screening, pooled HLM, desethylamodiaquine formation, mean ± standard error): 26.9 ± 5.6 µM
V/D index [2, 11]: 36.30 L/dose
IC50 [3]: 17.9 ± 2.2 µM
IC50 ([4]; Rough IC50, initial screening, HLM, β-estradiol): > 500 µM
inhibition at 30 min ([4]; human, human liver microsomes, pH 7.4, probe β-estradiol (25 μM)): < 50%
V/D index [4, 11]: <2 L/dose
IC50 ([5]; Precise IC50, confirmatory experiment, serotonin, mean ± SE): 15 µM
IC50 ([5]; Rough IC50, initial screening, serotonin glucuronide formation, mean ± standard error): 26.7 ± 40.7 µM
V/D index [5, 11]: 36.50 L/dose
IC50 [6]: > 100 µM
inhibition at 30 min ([6]; human, human liver microsomes, pH 7.4, probe mycophenolic acid (240 μM)): < 50%
V/D index [6, 11]: 3.89 L/dose
IC50 at 30 min ([7]; human, human intestinal microsomes, pH 7.4, probe mycophenolic acid (70 μM)): 92.7 ± 18.4 µM
VDI ([7]; initial screening): 10.5 L
V/D index [7, 11]: 10.53 L/dose
Decrease of bioavailability by fasting ([8]; fasting): ~55%
Clearance ([8]; intravenous dose of 2.5 mg/kg): rapid
Bioavailability ([8]; oral aqueous solution): 15%
Effect on blood pressure ([9]; 250 mg daily dose): reduction in blood pressure
Safety of long term use ([9]; humans, 250 mg/day): safe

Oc1ccc(/C=C/c2cc(O)cc(O)c2)cc1 [resveratrol]
Bioavailability [10]: 20%
